Data set [1] deals with rats. Kind of data set: Novel Object Recognition assay. The note with it: rat, PO, dosed 2 hours before T1, 24 h interval. The data set is classed as in vivo. The text has this:
To measure the cognition-enhancing effects of the compounds of the invention, the candidate compounds may be evaluated in a Novel Object Recognition (NOR) assay. This assay protocol is described in detail in Ennaceur et al., Behav. Brain Res. (1988) 31:47-59 and Prickaerts et al., Eur. J. Pharmacol. (1997) 337:125-136, the contents of each of which are incorporated by reference in their entirety. In this protocol, the rats are introduced to a chamber at time T1 and allowed to interrogate two identical “familiar objects” for six minutes. Twenty-four hours later, they are re-introduced to this chamber, where one of the familiar objects has been replaced with a novel object. The “discrimination index”, a measure of the time spent in close proximity to the novel over the familiar object, may then be measured. Since rodents will forget the original experiment at T1 within 4 hours, this test with a 24 h interval is a measure of strong cognitive enhancement.
This assay protocol can be modified in order to evaluate different phases of memory. There are three general phases of memory, namely, acquisition, consolidation and retrieval. In this modified protocol, the rats may be dosed with the candidate compound two hours before T1 and tested 24 h later without additional dosing. This is a test of the acquisition process. […]

Data set [2] addresses PDE1. Briefly: PDE1 inhibition in vitro, IMAP phosphodiesterase assay. The data set is classed as biochemical. The settings on record: cGMP-fluorescein substrate, read-out: IC50 (PDE1 inhibitory activity). The text has this: (§1) Phosphodiesterase 1 (PDE1) is a calcium/calmodulin dependent phosphodiesterase enzyme that converts cyclic guanosine monophosphate (cGMP) to 5′-guanosine monophosphate (5′-GMP). PDE1 can also convert a modified cGMP substrate, such as the fluorescent molecule cGMP-fluorescein, to the corresponding GMP-fluorescein. The generation of GMP-fluorescein from cGMP-fluorescein can be quantitated, using, for example, the IMAP (Molecular Devices, Sunnyvale, Calif.) immobilized-metal affinity particle reagent.
(§2) Briefly, the IMAP reagent binds with high affinity to the free 5′-phosphate that is found in GMP-fluorescein and not in cGMP-fluorescein. The resulting GMP-fluorescein-IMAP complex is large relative to cGMP-fluorescein. Small fluorophores that are bound up in a large, slowly tumbling, complex can be distinguished from unbound fluorophores, because the photons emitted as they fluoresce retain the same polarity as the photons used to excite the fluorescence.
(§3) In the phosphodiesterase assay, cGMP-fluorescein, which cannot be bound to IMAP, and therefore retains little fluorescence polarization, is converted to GMP-fluorescein, which, when bound to IMAP, yields a large increase in fluorescence polarization (Δmp). Inhibition of phosphodiesterase, therefore, is detected as a decrease in Δmp.
Materials: All chemicals are available from Sigma-Aldrich (St. Louis, Mo.) except for IMAP reagents (reaction buffer, binding buffer, FL-GMP and IMAP beads), which are available from Molecular Devices (Sunnyvale, Calif.).
Assay: The following phosphodiesterase enzymes may be used: 3′,5′-cyclic-nucleotide-specific bovine brain phosphodiesterase (Sigma, St. Louis, Mo.) and recombinant full length human PDE1A and PDE1B (r-hPDE1A and r-hPDE1B, respectively) which may be produced e.g., in HEK or SF9 cells by one skilled in the art. The PDE1 enzyme is reconstituted with 50% glycerol to 2.5 U/ml. One unit of enzyme will hydrolyze 1.0 μmole of 3′,5′-cAMP to 5′-AMP per min at pH 7.5 at 30° C. […] 99 μl of diluted enzyme solution is added into each well in a flat bottom 96-well polystyrene plate to which 1 μl of test compound dissolved in 100% DMSO is added. The test compounds are mixed and pre-incubated with the enzyme for 10 min at room temperature.
The plate is incubated at room temperature for 1 hour to allow IMAP binding to proceed to completion, and then placed in an Envision multimode microplate reader (PerkinElmer, Shelton, Conn.) to measure the fluorescence polarization (Δmp).
(§4) A decrease in GMP concentration, measured as decreased Δmp, is indicative of inhibition of PDE activity.

Data set [3] in a line: Metabolism rates in human liver microsomes (stability). The data set is classed as in vitro ADME. The note with it: pooled human liver microsomes, pH 7.5, 0.5 mg/ml protein, 1 μM test compound, NADPH, 37° C., read-out: T1/2 in human liver microsomes. How it is done:
Pooled human liver microsomes (final protein concentration 0.5 mg/ml) are incubated with test compound (final concentration 1 μM) in the presence of a NADPH regenerating system. The final buffer composition is: 1 mM EDTA, 100 mM potassium phosphate pH 7.5. The reactions are initiated by addition of the cofactor NADPH, and terminated after a 0, 15, 30, 45 and 60 minute incubation at 37° C. by addition of cold acetonitrile containing the internal analysis standard. After centrifuging at 4000 rpm for 20 minutes at 4° C., the supernatant are transferred for analysis using HPLC/MS/MS to measure the disappearance of the test compound. The percentage of the test compound remaining over time is calculated relative to the zero time point. The intrinsic clearance rates were calculated based on percentage of compound remaining at the 15-60 min. time points.
In general terms: Liver microsomes are a subcellular fraction often used to study metabolism.

Data set [4] has as its system C57BL/6 mice. Briefly: Haloperidol induced catalepsy model (bar grip test). The data set is classed as in vivo, mouse. The settings on record: haloperidol 3 mg/Kg PO, step down latency. The text has this: To evaluate the potential beneficial effects to motor defects present in schizophrenics treated with typical and atypical antipsychotic agents and in Parkinson's disease patients, the compounds of the invention may be tested in a reversal of catalepsy model in which motor freezing, or catalepsy, is induced by potent dopamine D2 receptor antagonists such as haloperidol or risperidone. The method uses the “bar grip test”, in which the front paws of the mouse are placed so as to grip a 3 mm-diameter, suspended wooden bar. A “step down latency” is measured by recording the time until the mouse removes its paws from the wooden bar to the floor surface. Catalepsy is a freezing of the musculature that prevents the mouse from moving off the bar. […]
A catalepsy score is recorded for each mouse at 2, 3, 4, and 6 hours after administration of drugs. […] The latency until the mouse steps both paws down from the bar to the floor surface (i.e., step down latency) is recorded up to 120 sec. […] If none of the 10 attempts are beyond 10 sec, the longest duration recorded is used as the catalepsy score. Otherwise, the initial cataleptic duration (>10 sec) is recorded during the 120 sec testing time. Mean step down latency is calculated for each treatment group.

Data set [5] addresses recombinant full length human PDE1B (r-hPDE1B) (Homo sapiens (Human), UniProt Q01064). Kind of data set: PDE1 inhibition in vitro, IMAP phosphodiesterase assay (r-hPDE1B). The data set is classed as biochemical.
Text: as §1, §2, §3
(§5) Materials: All chemicals are available from Sigma-Aldrich (St. Louis, Mo.) except for IMAP reagents (reaction buffer, binding buffer, FL-GMP and IMAP beads), which are available from Molecular Devices (Sunnyvale, Calif.). […]
(§6) The reaction is incubated in dark at room temperature for 15 min. […] The plate is incubated at room temperature for 1 hour to allow IMAP binding to proceed to completion, and then placed in an Envision multimode microplate reader (PerkinElmer, Shelton, Conn.) to measure the fluorescence polarization (Δmp).
as §4

In data set [6] the target is recombinant full length human PDE1A (r-hPDE1A) (Homo sapiens (Human), UniProt P54750). Kind of data set: PDE1 inhibition in vitro, IMAP phosphodiesterase assay (r-hPDE1A). The data set is classed as biochemical.
Text: as §1, §2, §3, §5, §6, §4

With `CC(=O)c1ccc(Cn2nc3c(c2Nc2ccc(F)cc2)C(=O)N(C)C2=NC(C)(C)CN23)cc1` [Example 1, 7,8-Dihydro-2-(4-acetylbenzyl)-3-(4-fluorophenylamino)-5,7,7-trimethyl-[2H]-imidazo-[1,2-a]pyrazolo[4,3-e]pyrimidin-4(5H)-one], in data set [1], the “minimal effective dose, Novel Object Recognition” value amounted to 0.1 mg/kg. Further, in data set [2], the IC50 – broadly, the point on the concentration scale where inhibition reaches its midpoint – was not above 5 nM. In addition, the half-life at 1 μM in data set [3] is 2.85 h. For the same compound, the “minimal effective dose, catalepsy model” value in data set [4] was 0.1 mg/kg.

Take `CC(=O)c1ccc(Cn2nc3c(c2Nc2ccc(F)c(C)c2)C(=O)N(C)C2=NC(C)(C)CN23)cc1` [Example 4, 7,8-Dihydro-2-(4-acetylbenzyl)-3-(4-fluoro-3-methylphenylamino)-5,7,7-trimethyl-[2H]-imidazo-[1,2-a]pyrazolo[4,3-e]pyrimidin-4(5H)-one]: the results for the Ki in data set [5] and in data set [6] were 0.4 nM and 0.1 nM, respectively. Also, the IC50 in data set [2] is not above 5 nM. Further, in data set [3], the half-life at 1 μM came out at 1.12 h.

Consider `CC(=O)c1ccc(Cn2nc3c(c2Nc2ccc(F)c(F)c2)C(=O)N(C)C2=NC(C)(C)CN23)cc1` [Example 3, 7,8-Dihydro-2-(4-acetylbenzyl)-3-(3,4-difluorophenylamino)-5,7,7-trimethyl-[2H]-imidazo-[1,2-a]pyrazolo[4,3-e]pyrimidin-4(5H)-one], for which the results for the Ki in data set [5] and in data set [6] were 4 nM and 0.3 nM, respectively. The IC50 in data set [2] is not above 5 nM. Besides, in data set [3], the half-life at 1 μM is 1.3 h.

With `CC(O)c1ccc(Cn2nc3c(c2Nc2ccc(F)cc2)C(=O)N(C)C2=NC(C)(C)CN23)cc1` (stereo not drawn) [Example 2, 7,8-Dihydro-2-(4-(1-hydroxyethyl)benzyl)-3-(4-fluorophenylamino)-5,7,7-trimethyl-[2H]-imidazo-[1,2-a]pyrazolo[4,3-e]pyrimidin-4(5H)-one], the values for the inhibition constant Ki in data set [5] and in data set [6] were 4 nM and 0.5 nM, respectively. In data set [2], the concentration for half-maximal inhibition (IC50) was not above 5 nM.
